Measurements published in ChEMBL document CHEMBL5212743, “Selectivity Literature for EUbOPEN Chemogenomics Library wave 3” (2023).

Assays:
[1] = target: Adenosine receptor A2a (Homo sapiens) (UniProt P29274); experiment: Selectivity interaction (Enzyme panel (kinases, GPCRs, HDACs, phosphatases)) EUB0000329a ADORA2A; conditions: at 10 µM
[2] = target: T1, Gamma-aminobutyric acid receptor subunit alpha-1 (Homo sapiens) (UniProt P14867); experiment: Selectivity interaction (GPCR panel (PDSP screen)) EUB0000329a GABRA1; conditions: at 10 µM
T1 sequence (whole entry): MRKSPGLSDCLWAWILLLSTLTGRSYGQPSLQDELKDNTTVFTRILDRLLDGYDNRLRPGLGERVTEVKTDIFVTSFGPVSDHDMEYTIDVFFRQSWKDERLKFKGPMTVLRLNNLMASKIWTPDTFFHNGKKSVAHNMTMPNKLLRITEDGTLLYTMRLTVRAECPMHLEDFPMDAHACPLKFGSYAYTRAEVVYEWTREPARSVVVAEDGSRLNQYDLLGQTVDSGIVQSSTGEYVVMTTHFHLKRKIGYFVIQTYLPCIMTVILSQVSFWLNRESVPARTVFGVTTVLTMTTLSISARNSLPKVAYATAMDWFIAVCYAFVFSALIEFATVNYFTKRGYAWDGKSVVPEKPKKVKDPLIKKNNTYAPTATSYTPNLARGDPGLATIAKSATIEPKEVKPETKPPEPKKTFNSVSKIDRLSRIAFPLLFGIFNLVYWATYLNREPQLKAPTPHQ

[3] = target: Serine/threonine-protein kinase 33 (Homo sapiens, UniProt Q9BYT3); experiment: Selectivity interaction (Kinase panel (International centre for protein kinase profiling)) EUB0000627a STK33; conditions: at 1 µM
[4] = target: T2, Serine/threonine-protein kinase ULK2 (Homo sapiens) (UniProt Q8IYT8); experiment: Selectivity interaction (Kinase panel (International centre for protein kinase profiling)) EUB0000627a ULK2; conditions: at 1 µM
T2 sequence (whole entry): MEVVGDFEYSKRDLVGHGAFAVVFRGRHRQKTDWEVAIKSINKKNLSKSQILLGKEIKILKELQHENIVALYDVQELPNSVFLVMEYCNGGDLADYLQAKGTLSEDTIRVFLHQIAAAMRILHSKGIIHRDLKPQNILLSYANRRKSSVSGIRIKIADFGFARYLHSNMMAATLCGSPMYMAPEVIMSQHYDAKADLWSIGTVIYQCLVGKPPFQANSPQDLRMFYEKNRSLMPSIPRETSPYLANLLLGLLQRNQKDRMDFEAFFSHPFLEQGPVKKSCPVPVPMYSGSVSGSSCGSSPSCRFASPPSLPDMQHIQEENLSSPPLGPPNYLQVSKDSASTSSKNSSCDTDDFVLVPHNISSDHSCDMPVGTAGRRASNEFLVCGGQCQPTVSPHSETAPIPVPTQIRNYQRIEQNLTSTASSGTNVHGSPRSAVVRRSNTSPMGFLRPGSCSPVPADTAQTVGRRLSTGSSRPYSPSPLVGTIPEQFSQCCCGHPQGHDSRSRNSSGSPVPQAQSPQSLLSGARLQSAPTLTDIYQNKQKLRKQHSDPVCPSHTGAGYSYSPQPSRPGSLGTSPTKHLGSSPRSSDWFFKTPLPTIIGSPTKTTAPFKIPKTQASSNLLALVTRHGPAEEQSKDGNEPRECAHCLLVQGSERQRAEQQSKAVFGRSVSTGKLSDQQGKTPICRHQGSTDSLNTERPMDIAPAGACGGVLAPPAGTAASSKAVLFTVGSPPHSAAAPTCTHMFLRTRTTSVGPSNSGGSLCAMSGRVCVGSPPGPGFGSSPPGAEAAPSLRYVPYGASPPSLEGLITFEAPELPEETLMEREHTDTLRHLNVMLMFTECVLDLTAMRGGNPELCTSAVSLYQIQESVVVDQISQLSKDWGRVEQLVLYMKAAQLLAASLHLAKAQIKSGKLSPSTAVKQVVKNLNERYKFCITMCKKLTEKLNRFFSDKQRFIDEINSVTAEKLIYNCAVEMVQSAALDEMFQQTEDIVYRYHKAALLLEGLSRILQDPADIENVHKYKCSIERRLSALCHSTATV

[5] = target: T3, Alpha-1A adrenergic receptor (Homo sapiens) (UniProt P35348); experiment: (§1) Selectivity interaction (GPCR panel (PDSP screen)) EUB0000300bCl ADRA1A; conditions: at 10 µM
T3 sequence (whole entry): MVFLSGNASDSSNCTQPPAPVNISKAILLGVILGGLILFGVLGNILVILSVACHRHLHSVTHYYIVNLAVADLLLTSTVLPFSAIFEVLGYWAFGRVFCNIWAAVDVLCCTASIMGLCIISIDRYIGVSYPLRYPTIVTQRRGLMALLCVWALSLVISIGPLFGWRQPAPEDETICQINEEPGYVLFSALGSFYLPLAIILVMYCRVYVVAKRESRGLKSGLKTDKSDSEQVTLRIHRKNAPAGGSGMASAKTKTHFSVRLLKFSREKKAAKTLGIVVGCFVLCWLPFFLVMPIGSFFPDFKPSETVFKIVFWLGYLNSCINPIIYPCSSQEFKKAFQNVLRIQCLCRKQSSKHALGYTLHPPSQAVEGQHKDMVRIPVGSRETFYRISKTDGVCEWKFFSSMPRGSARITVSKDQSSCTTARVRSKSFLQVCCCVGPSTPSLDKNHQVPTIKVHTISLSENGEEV

[6] = target: T4, Alpha-1A adrenergic receptor (Homo sapiens, UniProt P35348); experiment: as §1
T4 sequence (P35348 whole entry): T3 sequence (whole entry)

[7] = target: T5, Alpha-1B adrenergic receptor (Homo sapiens, UniProt P35368); experiment: Selectivity interaction (GPCR panel (PDSP screen)) EUB0000300bCl ADRA1B
T5 sequence (P35368 whole entry): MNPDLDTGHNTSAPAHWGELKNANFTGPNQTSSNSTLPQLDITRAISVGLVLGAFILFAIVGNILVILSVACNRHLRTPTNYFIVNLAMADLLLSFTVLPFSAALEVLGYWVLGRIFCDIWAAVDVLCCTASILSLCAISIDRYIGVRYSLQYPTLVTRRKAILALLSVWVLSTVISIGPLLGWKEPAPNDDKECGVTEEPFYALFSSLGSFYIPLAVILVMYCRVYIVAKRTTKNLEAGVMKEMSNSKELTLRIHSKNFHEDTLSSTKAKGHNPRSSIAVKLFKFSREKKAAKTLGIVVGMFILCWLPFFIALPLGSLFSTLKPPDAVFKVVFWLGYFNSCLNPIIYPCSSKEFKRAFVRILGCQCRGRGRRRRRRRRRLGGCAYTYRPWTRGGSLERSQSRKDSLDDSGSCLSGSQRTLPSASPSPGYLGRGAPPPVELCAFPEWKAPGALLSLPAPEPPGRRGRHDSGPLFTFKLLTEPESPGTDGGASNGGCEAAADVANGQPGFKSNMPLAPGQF

[8] = target: T6, Alpha-2B adrenergic receptor (Homo sapiens) (UniProt P18089); experiment: Selectivity interaction (GPCR panel (PDSP screen)) EUB0000300bCl ADRA2B; conditions: at 10 µM
T6 sequence (whole entry): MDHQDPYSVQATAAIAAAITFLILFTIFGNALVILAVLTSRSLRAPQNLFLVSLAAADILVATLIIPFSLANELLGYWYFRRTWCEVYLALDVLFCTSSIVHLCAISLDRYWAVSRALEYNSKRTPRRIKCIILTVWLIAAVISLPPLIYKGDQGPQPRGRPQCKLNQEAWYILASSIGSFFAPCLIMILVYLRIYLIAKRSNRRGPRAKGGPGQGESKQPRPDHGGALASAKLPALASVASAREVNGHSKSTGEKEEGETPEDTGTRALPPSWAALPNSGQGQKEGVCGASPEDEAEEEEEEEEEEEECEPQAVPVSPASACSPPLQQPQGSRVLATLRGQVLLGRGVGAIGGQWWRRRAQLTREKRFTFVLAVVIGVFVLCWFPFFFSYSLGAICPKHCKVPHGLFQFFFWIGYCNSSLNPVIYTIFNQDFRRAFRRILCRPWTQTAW

[9] = target: Mitogen-activated protein kinase 6 (Homo sapiens) (UniProt Q16659); experiment: Selectivity interaction (KinomeScan (DiscoverX)) EUB0000300bCl MAPK6; conditions: at 1 µM
[10] = target: Tyrosine-protein kinase receptor TYRO3 (Homo sapiens) (UniProt Q06418); experiment: Selectivity interaction (KinomeScan (DiscoverX)) EUB0000300bCl TYRO3; conditions: at 1 µM
Sequence of Tyrosine-protein kinase receptor TYRO3 (Homo sapiens) (Q06418 whole entry): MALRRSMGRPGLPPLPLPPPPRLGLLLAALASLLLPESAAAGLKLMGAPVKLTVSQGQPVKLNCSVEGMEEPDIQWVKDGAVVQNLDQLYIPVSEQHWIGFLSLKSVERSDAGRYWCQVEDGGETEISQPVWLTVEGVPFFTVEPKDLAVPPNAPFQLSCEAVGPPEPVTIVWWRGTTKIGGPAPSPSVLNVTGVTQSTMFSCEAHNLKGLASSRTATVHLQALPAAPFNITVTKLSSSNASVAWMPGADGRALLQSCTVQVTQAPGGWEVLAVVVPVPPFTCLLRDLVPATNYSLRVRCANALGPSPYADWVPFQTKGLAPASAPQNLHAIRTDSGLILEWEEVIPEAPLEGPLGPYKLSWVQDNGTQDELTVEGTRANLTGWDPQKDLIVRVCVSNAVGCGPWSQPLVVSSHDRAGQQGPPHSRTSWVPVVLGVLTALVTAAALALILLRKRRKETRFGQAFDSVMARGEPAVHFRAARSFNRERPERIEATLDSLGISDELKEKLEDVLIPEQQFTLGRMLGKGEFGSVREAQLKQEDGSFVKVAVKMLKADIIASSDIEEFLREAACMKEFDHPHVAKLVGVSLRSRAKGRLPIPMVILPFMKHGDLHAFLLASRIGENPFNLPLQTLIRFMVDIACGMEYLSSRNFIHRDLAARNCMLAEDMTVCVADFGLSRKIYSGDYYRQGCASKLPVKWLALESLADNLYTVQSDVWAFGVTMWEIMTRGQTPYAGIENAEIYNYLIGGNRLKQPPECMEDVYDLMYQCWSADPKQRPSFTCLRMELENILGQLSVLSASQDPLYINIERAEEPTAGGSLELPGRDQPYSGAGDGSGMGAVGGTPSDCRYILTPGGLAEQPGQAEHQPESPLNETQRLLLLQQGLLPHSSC

[11] = target: Serine/threonine-protein kinase Nek1 (Homo sapiens) (UniProt Q96PY6); experiment: Selectivity interaction (KinomeScan (DiscoverX)) EUB0000711a NEK1; conditions: at 100 nM
Sequence of Serine/threonine-protein kinase Nek1 (Homo sapiens) (Q96PY6 whole entry): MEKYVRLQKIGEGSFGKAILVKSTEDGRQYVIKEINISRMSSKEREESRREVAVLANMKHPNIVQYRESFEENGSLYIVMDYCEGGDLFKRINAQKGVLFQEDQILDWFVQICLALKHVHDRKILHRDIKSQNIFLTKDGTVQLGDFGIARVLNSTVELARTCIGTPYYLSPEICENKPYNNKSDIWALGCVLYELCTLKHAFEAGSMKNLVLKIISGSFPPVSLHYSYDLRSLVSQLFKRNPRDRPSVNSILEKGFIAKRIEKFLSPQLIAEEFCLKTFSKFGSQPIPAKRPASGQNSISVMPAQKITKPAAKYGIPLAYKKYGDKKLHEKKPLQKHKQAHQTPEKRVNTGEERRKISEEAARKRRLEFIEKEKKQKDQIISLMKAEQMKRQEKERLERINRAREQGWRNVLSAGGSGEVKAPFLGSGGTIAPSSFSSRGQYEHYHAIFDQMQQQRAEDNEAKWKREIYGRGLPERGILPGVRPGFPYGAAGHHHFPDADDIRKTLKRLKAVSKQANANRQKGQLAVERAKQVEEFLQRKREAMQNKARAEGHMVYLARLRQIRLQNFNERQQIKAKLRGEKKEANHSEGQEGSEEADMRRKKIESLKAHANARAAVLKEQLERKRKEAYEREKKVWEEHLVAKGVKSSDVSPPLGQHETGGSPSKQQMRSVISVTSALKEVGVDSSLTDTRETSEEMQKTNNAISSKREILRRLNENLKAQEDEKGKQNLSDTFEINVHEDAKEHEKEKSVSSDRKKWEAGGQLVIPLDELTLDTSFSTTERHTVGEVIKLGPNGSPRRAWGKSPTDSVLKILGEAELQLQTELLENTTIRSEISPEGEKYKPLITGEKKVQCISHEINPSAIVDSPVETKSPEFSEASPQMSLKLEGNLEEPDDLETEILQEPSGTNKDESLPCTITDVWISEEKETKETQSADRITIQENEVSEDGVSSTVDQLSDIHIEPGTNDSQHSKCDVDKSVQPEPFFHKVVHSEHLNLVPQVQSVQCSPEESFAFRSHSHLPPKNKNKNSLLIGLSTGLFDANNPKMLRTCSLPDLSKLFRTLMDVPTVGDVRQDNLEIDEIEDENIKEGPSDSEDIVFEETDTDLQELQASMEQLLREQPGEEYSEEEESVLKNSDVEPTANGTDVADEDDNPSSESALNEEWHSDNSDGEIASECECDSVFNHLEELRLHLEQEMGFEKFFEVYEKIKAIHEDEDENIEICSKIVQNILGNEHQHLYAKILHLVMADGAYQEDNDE

[12] = target: Leucine-rich repeat serine/threonine-protein kinase 2 (Homo sapiens, UniProt Q5S007); experiment: Selectivity interaction (KinomeScan (DiscoverX)) EUB0000711a LRRK2; conditions: at 100 nM
[13] = target: Serine/threonine-protein kinase 38-like (Homo sapiens, UniProt Q9Y2H1); experiment: Selectivity interaction (KinomeScan (DiscoverX)) EUB0000711a STK38L; conditions: at 100 nM
[14] = target: Calcium/calmodulin-dependent protein kinase type IV (Homo sapiens) (UniProt Q16566); experiment: Selectivity interaction (Kinase panel) EUB0000209b CAMK4; conditions: at 10 µM
[15] = target: Protein arginine N-methyltransferase 3 (Homo sapiens, UniProt O60678); experiment: Selectivity interaction (HMT panel) EUB0000209b PRMT3; conditions: at 1 µM
[16] = target: Phosphatidylinositol 4,5-bisphosphate 3-kinase catalytic subunit alpha isoform (Homo sapiens, UniProt P42336); conditions: at 1 µM
[17] = target: T7, Phosphatidylinositol 4,5-bisphosphate 3-kinase catalytic subunit delta isoform (Homo sapiens) (UniProt O00329); conditions: at 1 µM
T7 sequence (whole entry): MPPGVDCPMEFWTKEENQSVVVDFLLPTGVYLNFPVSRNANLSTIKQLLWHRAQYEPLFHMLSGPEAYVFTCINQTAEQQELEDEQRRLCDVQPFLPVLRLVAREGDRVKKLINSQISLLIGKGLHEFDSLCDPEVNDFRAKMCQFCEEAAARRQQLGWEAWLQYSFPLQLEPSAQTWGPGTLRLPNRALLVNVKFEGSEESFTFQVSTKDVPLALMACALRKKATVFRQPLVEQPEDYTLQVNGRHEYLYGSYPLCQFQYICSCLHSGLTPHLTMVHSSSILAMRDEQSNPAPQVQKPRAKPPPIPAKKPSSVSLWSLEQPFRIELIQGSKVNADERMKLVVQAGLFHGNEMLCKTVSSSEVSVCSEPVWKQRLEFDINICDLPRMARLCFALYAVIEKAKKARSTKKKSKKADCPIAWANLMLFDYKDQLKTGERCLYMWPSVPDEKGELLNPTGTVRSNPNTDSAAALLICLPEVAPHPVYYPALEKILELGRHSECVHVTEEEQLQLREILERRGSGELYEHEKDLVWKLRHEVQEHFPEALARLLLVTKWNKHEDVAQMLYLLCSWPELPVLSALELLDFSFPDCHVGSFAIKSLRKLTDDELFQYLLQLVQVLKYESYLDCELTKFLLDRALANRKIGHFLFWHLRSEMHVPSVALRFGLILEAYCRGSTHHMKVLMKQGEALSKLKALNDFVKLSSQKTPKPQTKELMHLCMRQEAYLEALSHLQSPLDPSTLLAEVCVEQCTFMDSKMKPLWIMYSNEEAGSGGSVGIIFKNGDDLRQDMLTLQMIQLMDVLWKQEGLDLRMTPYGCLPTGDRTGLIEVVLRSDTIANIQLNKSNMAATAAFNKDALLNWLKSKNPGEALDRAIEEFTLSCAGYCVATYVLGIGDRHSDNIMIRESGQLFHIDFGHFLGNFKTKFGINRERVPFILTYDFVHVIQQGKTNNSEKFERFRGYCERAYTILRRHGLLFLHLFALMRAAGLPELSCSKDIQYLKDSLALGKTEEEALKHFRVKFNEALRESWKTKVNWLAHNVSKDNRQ

[18] = target: Protein-tyrosine kinase 6 (Homo sapiens) (UniProt Q13882); conditions: at 1 µM
Sequence of Protein-tyrosine kinase 6 (Homo sapiens) (Q13882 whole entry, looked up): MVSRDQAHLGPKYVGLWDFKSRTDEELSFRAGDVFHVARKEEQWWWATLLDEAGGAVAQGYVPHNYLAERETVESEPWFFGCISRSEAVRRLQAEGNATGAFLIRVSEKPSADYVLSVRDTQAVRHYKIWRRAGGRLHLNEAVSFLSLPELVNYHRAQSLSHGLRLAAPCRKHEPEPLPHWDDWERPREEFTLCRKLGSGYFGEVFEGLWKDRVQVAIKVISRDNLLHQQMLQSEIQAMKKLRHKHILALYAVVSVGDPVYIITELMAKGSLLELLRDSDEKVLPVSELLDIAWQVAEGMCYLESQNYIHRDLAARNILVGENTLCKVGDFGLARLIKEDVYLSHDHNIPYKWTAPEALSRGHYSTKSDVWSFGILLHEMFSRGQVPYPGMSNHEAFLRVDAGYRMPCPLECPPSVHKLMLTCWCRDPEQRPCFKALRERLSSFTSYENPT

[19] = target: Ribosomal protein S6 kinase alpha-6 (Homo sapiens) (UniProt Q9UK32); experiment: Selectivity interaction (KinomeScan (DiscoverX)) EUB0000132b RPS6KA6; conditions: at 1 µM
[20] = target: Myosin light chain kinase family member 4 (Homo sapiens) (UniProt Q86YV6); experiment: Selectivity interaction (KinomeScan (DiscoverX)) EUB0000132b MYLK4; conditions: at 1 µM
Sequence of Myosin light chain kinase family member 4 (Homo sapiens) (Q86YV6 whole entry, the tested form may be a part): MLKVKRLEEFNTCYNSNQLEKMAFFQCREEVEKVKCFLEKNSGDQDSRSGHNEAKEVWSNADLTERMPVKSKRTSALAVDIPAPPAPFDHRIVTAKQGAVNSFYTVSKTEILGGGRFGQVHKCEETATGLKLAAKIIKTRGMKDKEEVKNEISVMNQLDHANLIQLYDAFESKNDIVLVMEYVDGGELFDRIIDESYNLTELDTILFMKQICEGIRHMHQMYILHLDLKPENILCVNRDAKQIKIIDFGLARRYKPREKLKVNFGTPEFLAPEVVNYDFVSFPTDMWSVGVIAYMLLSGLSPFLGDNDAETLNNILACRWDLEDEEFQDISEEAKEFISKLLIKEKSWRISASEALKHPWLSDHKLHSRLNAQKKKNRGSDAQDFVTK

[21] = target: Discoidin domain-containing receptor 2 (Homo sapiens) (UniProt Q16832); experiment: Selectivity interaction (KinomeScan (DiscoverX)) EUB0000132b DDR2; conditions: at 1 µM
Sequence of Discoidin domain-containing receptor 2 (Homo sapiens) (Q16832 whole entry, the tested form may be a part): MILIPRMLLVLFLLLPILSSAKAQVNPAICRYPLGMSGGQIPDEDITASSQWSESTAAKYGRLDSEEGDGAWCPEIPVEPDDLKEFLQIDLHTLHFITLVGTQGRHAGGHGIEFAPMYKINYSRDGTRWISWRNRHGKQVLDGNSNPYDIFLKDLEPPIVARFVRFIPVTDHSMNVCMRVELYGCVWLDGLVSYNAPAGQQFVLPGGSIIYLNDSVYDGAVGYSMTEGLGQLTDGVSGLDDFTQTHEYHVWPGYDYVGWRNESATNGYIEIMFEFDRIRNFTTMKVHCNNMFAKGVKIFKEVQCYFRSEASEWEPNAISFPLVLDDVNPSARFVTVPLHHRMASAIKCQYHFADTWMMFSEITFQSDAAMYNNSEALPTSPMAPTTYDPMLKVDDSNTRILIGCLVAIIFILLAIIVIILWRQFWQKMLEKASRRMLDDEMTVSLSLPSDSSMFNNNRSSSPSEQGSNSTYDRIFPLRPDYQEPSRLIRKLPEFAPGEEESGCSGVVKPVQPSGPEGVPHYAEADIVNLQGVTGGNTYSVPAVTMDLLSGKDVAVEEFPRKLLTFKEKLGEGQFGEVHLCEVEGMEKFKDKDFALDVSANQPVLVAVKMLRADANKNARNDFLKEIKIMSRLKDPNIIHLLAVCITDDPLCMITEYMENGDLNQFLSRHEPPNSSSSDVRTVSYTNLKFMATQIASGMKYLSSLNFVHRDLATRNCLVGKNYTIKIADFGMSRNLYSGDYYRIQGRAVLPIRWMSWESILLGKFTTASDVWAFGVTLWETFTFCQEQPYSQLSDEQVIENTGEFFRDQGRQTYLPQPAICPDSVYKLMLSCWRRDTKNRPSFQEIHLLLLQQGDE

[22] = tested on: Mast/stem cell growth factor receptor Kit (Homo sapiens), P10721 [V559D]; experiment: (§2) Selectivity interaction (KinomeScan (DiscoverX)) EUB0000132b KIT; conditions: at 1 µM
Sequence of Mast/stem cell growth factor receptor Kit (Homo sapiens), P10721 [V559D] (P10721 whole entry V559D): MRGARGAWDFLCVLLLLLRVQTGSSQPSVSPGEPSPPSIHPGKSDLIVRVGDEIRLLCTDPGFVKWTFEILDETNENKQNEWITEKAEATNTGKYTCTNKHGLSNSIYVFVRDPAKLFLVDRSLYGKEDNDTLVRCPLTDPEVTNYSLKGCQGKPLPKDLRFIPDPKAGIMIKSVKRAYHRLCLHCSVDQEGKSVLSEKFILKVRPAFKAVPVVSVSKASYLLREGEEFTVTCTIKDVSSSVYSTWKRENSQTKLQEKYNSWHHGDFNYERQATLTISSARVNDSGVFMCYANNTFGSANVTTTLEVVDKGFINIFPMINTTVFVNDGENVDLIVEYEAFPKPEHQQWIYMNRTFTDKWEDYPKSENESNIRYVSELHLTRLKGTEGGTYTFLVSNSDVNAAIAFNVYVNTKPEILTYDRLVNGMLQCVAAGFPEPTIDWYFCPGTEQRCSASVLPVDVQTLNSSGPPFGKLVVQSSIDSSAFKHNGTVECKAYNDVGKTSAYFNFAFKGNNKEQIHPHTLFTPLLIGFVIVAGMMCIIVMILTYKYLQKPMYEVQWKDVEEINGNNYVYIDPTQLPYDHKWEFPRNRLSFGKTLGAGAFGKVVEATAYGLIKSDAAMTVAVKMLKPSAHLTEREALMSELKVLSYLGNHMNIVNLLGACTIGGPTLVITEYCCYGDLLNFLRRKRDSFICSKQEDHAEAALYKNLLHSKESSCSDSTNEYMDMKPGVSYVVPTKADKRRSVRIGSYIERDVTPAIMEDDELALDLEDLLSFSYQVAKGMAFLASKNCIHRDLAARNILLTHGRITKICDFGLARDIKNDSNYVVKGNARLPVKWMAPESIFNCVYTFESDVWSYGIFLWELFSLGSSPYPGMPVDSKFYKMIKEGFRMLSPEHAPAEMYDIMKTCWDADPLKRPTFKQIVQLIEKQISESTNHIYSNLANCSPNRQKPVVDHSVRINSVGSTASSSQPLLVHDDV

[23] = target: Mast/stem cell growth factor receptor Kit (Homo sapiens, UniProt P10721); experiment: as §2; conditions: at 1 µM
Sequence of Mast/stem cell growth factor receptor Kit (P10721 whole entry): as the sequence (P10721 whole entry V559D) above, with D559V counted along it

[24] = target: Mitogen-activated protein kinase kinase kinase 20 (Homo sapiens) (UniProt Q9NYL2); experiment: Selectivity interaction (KinomeScan (DiscoverX)) EUB0000132b MAP3K20; conditions: at 1 µM
[25] = target: Epithelial discoidin domain-containing receptor 1 (Homo sapiens, UniProt Q08345); conditions: at 1 µM

O=C(NNS(=O)(=O)c1ccccc1F)c1cc(F)cc(-c2ccccn2)c1
% of inhibition [1]: 49% | % of inhibition [2]: 75.7%

CCC(=O)Nc1cccc(Oc2nc(Nc3ccc(N4CCN(C)CC4)cc3OC)ncc2Cl)c1
% of kinase activity [3]: 33% | % of kinase activity [4]: 37%

C[C@@H](c1cccc(CN)c1)n1cc(Cl)cc(C(N)=O)c1=N
% of inhibition [5]: 84% | Ki [6]: > 2700 nM | Ki [7]: > 1200 nM | % of inhibition [8]: 80% | % of control [9]: 0% | % of control [10]: 33%

O=C(NCCCC1CCCCC1)c1ccc(CNC(=O)c2cnn(-c3ccccc3)c2C(F)(F)F)cc1
% of control [11]: 58% | % of control [12]: 57% | % of control [13]: 20%

CCCc1cc(C)[nH]c(=O)c1CNC(=O)c1cc(-c2ccc(N3CCN(C(C)C)CC3)nc2)cc2c1cnn2C(C)C
% of inhibition [14]: 20% | % activity remaining [15]: > 70%

Cc1nc(-c2cn3c(n2)-c2ccc(-c4cnn(C(C)(C)C(N)=O)c4)cc2OCC3)n(C(C)C)n1
% of control [16]: 98.6% | % of control [17]: 97.9%

C=CC(=O)N1CCC([C@@H]2CCNc3c(C(N)=O)c(-c4ccc(Oc5ccccc5)cc4)nn32)CC1
% of inhibition [18]: 99%

Nc1c(C(=O)NCc2ccc(C(=O)NCCCC3CCCCC3)cc2)cnn1-c1ccccc1
% of control [19]: 29% | % of control [20]: 31% | % of control [21]: 31% | % of control [22]: 3% | % of control [23]: 7.7% | % of control [24]: 8.8% | % of control [25]: 3%
